According to patent US12202845:

Settings: from CCn1c(-c2cccnc2[C@H](C)OC)c(CC(C)(C)CO)c2cc(C3=CCCN(CC(NC(=O)OC(C)(C)C)C(=O)N4CCC[C@@H](C(=O)O)N4)C3)ccc21; ester bond; 18-membered ring; EDCI.HCl/HOBt/DIPEA; DCM; 7.1 mM; 30.0 °C; 16.0 h

## CCn1c(-c2cccnc2[C@H](C)OC)c2c3cc(ccc31)C1=CCCN(C1)CC(NC(=O)OC(C)(C)C)C(=O)N1CCC[C@H](N1)C(=O)OCC(C)(C)C2 (stereo partly shown)
  ring closure, isolated yield: 40%
